How the values were obtained:
[1] = test system: optic nerve (retinal ganglion cell axons); test: optic nerve transection after intravitreal injection, neurofilament Western blot; assay type: in vivo, rat; conditions: 5 μl of 100 mM intravitreal, 24 hours before transection; 4 days after transection
Experimental: FIG. 9 illustrates optic nerve transection after intravitreal injection of NAD biosynthetic substrates NAD, NMN, NmR, or Nam was injected into intravitreal compartment of left rat eye and allowed to incorporate retinal ganglion cells for 24 hours after which, left optic nerve was transected by eye enucleation and right and left optic nerves were collected at 4 days after transection and analyzed by Western blotting in which optic nerves transected from […] without any treatment prior to axotomy were used for negative control; showing in the figure, the quantitative analysis data of percentage of remaining neurofilament immunoreactivity from transected optic nerve relative to non-transected±S.D.
Administration of NAD biosynthetic substrates and optic Nerve transection. Nam, NMN, NmR, or NAD was dissolved in PBS at the concentration of 100 mM or 1 M. Each of 5 μl solution was injected into left intravitreal component under the anesthesia at a rate of […]. The left optic nerve was transected at 24 hours after intravitreal injection and optic nerve was recovered at indicated time. Optic nerve tissue was homogenized in 100 μl of a buffer containing 100 mM tris-HCl (pH 6.8), 1% SDS, and 1 mM DTT. Fifty μg of protein for each sample was analyzed by the Western blotting using anti-neurofilament antibody 2H3 (Developmental Studies Hybridoma Center) and peroxidase-conjugated secondary antibody (Jackson ImmunoResearch). The degeneration rate was calculated from the ratio of the neurofilament immunoreactivity of transected vs. contralateral nerves.
Transection of optic nerve is an in vivo model which can be used to investigate mechanisms leading to Wallerian degeneration and following retinal ganglion cell (RGC) death observed in human diseases such as glaucoma. In the C57BL/Wlds mouse strain, optic nerve degeneration during Wallerian degeneration after axotomy is dramatically slowed. In addition, intravitreal injection is used for screening of compounds that protect RGC axon from degeneration in vivo and thus we can asses the axon protective effect of each NAD biosynthetic substrates in vive by intraocular injection of compounds including NAD, NMN, NmR, and Nam. From in vitro Wallerian degeneration assay, 1 mM of NAD, NMN, and NmR in the culture media is enough to protect axon from degeneration. We initially injected 5 μl of 100 mM or 1 M NAD solution into left intravitreal compartment. After 24 hours incubation, left optic nerve was transected and control (right) and axotomized (left) optic nerve were collected at 3, 4, and 5 days after transection. Neurofilament immunoreactivity from the axotomized optic nerve was measured and normalized against the value obtained from the right side of the optic nerve.

[2] = test system: neuro2A cells; test: cellular ATP levels, luciferase-based assay in neuro2A cells; assay type: cell-based
Experimental: To explore the role of polyphenols, in particular, of resveratrol, we tested whether resveratrol altered the activity of AMPK in neuronal cells. Neuro2a neuroblastoma cells were treated with resveratrol (10 μM) and AMPK activation was examined using phospho-AMPK specific antibodies. […] To confirm that AMPK activation by resveratrol results in typical AMPK-mediated downstream responses, we monitored phosphorylation of ACC (acetyl Co-A carboxylase), a primary target of activated AMPK. […] To examine a potential mechanism of resveratrol-mediated AMPK activation, we measured cellular ATP levels as a decreased ATP:AMP ratio increases the phosphorylation of AMPK. ATP levels were monitored using a luciferase-based assay in neuro2A cells treated with resveratrol or Oligomycin, an inhibitor of mitochondrial oxidative phosphorylation and therefore ATP production. While the ATP concentration dropped from 5.874 μM in DMSO-treated cells (control) to 0.976 μM in Oligomycin treated cells within 2 hr, the ATP concentration in resveratrol-treated Neuro2a cells was not altered from control either at 2 hr (6.33 μM) or 24 hr (6.42 μM).

[3] = test system: AMPK; test: AMPK phosphorylation in brain after intraperitoneal injection; assay type: in vivo, mice; conditions: single intraperitoneal injection 20 mg/kg; within 2 h
Experimental: (§1) FIG. 15A-E illustrates that resveratrol treatment causes AMPK phosphorylation in the brain. Two-month-old male mice were injected intraperitoneally with resveratrol (20 mg/kg body weight) or DMSO (vehicle) (n=3, for each treatment). Two hr after treatment, the animals were sacrificed and brain lysates were prepared. […] Total AMPK and ACC levels are shown as loading controls in B and D. (E) Densitometry was used to quantify the increased level of AMPK and ACC phosphorylation in the brain of resveratrol treated animals (* p<0.005).
(§2) To extend our in vitro results, we tested whether treating mice with resveratrol activates AMPK in the brain. We injected intraperitoneally 2-month-old male mice with either resveratrol (20 mg/kg body weight) or DMSO (vehicle) (n=3 for each group).

[4] = test system: ACC; test: ACC phosphorylation in brain after intraperitoneal injection; assay type: in vivo, mice; conditions: single intraperitoneal injection 20 mg/kg; within 2 h
Experimental: as §1, §2

NC(=O)c1cccnc1 [Nam, nicotinamide]
neurofilament immunoreactivity of axotomized optic nerve, of non-axotomized optic nerve [1]: did not show any difference from the control animals

Oc1ccc(C=Cc2cc(O)cc(O)c2)cc1 [resveratrol]
ATP concentration ([2]; 2 hr): 6.33 µM
ATP concentration ([2]; 24 hr): 6.42 µM
increased AMPK phosphorylation in the brain [3]: 2.5 fold
increased ACC phosphorylation in the brain [4]: 2.1 fold

Reference: patent US20160367497A1, “METHODS AND COMPOSITIONS FOR TREATING NEUROPATHIES” (Washington University, priority 2007, published 2016)
